Each structure is given as a SMILES string.

A short description of data set [1]: Morphine analgesia (Haffner method). Type of data set: in vivo, male mice dd strain. To be noted: subcutaneously. How it is done: (§1) The dl-KMG-86, d-KMG-86 and l-KMG-86 were all screened for their biological activity by the assays described in the reference J. Med. Chem. 16, 301 (1973). All three compounds were screened for their analgesic activity by the acetic acid induced stretching method of R. Kosta, Fed. Proc., Fed. Amer. Soc. Exp. Biol., 18, 412 (1959). Male albino mice dd strain (18.0-22.0 g.) were used. After the compounds were administered subcutaneously to five groups of animals consisting of ten mice per group, the effective ratio until 60 minutes was examined and the effective dose in 50% of the mice (ED50) was calculated by the Lichfield-Wilcoxin method [J. T. Lichfield and F. Wilcoxin, J. Pharmacol., 96, 99 (1949)]. […] Med. Wochenschr., 55, 731 (1929)], in which ten male mice dd strain per group were used.

Data set [2] relates to acetic acid induced stretching. The data set is described as follows: Analgesic activity, acetic acid induced stretching method. Type of data set: in vivo, male albino mice dd strain. The conditions noted are these: for ED50, Mean Value: 60 min. How it is done:
as §1

For a further data set, the system named is morphine analgesia. The data set is described as follows: Antagonism of morphine analgesia, Haffner method. Type of data set: in vivo, male mice dd strain. To be noted: morphine 16 mg/kg subcutaneously. How it is done:
as §1

Another data set in a line: Side effects or toxicity. The conditions noted are these: in vivo.
For data set [3] the following is noted: J. Med. Chem. 16, 301 (1973); cited from earlier work.
For data set [4] the following is noted: as described in U.S. Pat. No. 3,728,347; cited from earlier work.
The conditions of data set [5]: as described in U.S. Pat. No. 3,728,347; cited from earlier work. This is another data set of the same source.
For data set [6] the following is noted: humans; cited from earlier work.
[7] abbreviates: stretching method, subcutaneous, effective ratio until 60 minutes, Lichfield-Wilcoxin method.

The molecule `CN1CC[C@]23c4c5ccc(O)c4O[C@H]2[C@@H](O)C=C[C@H]3[C@H]1C5` [morphine] showed an ED100 of morphine in data set [1] of 16 mg/kg.
As for `Oc1ccc2c(c1)C13CCCCC1N(C2)N(CC1CC1)CC3` (stereo not drawn) [l-KMG-86, l-N-cyclopropylmethyl-3-hydroxy-9-azamorphinan], in data set [2] (from Table I ED50 (stretching method)), the “potency of l-isomer relative to dl-mixture” value was “about 3.5 fold”. Besides, the “ED50, Mean Value” in data set [2] (setting [7]) came to 0.45 mg/kg. The “Antagonist Dose (AD50)” value in the data set with morphine analgesia is 2.20 mg/kg, S. C. In addition, the “side effects or toxicity” value in “Side effects or toxicity” is “no substantial side effects or toxicity”.
As for `CC(C)=CCN1CCC2(C)c3cc(O)ccc3CC1C2C` (centres unmarked) [Pentazocine, reference compound], the ED50 (as a rule, the dose at which the effect has come halfway, by size or by number of responders) in data set [2] (Mus musculus, sc, 1 h, stretching method, subcutaneous, effective ratio until 60 minutes, Lichfield-Wilcoxin method) amounted to 2.4 mg/kg.
`Oc1ccc2c(c1)C13CCCCC1N(C2)N(CC1CC1)CC3` (racemic) [dl-KMG-86, dl-N-cyclopropylmethyl-3-hydroxy-9-azamorphinan]: the “ED50, Mean Value” in data set [2] (setting [7]) is on record as 1.63 mg/kg. The “Antagonist Dose (AD50)” value with morphine analgesia is 4.70 mg/kg, S. C. The “activity relative to pentazocine” value in data set [3] is listed as “about twice as active as pentazocine”. In addition, the “analgesic activity compared with morphine” value in data set [4] is recorded as “remarkable analgesic activity as strong as that possessed by morphine”. Also, the opiate dependence liability result in data set [5] was “lacking opiate dependence liability”. Also, the “confirmation in clinical studies of the activity found in mice” value in data set [6] is “The activity found in mice was confirmed in clinical studies in humans”.
In the case of `Oc1ccc2c(c1)C13CCCCC1N(C2)N(CC1CC1)CC3` (stereo not drawn) [d-KMG-86, d-N-cyclopropylmethyl-3-hydroxy-9-azamorphinan], the “ED50, Mean Value” in data set [2] (setting [7]) was “ca. 80 mg/kg”. Also, the “Antagonist Dose (AD50)” value in the data set with morphine analgesia is listed as 20 mg/kg, S. C.
